In ChEMBL document CHEMBL3877251, “Synthesis and biological evaluation of a series of N-alkylated imidazole alkanoic acids as mGAT3 selective GABA uptake inhibitors” (Eur J Med Chem, 2016):

How the values were obtained:
Format in all cases: cell-based
[1] = biological target: T1, GABA transporter 3 (Mus musculus) (UniProt P31649); test: Inhibition of mouse GAT3 expressed in HEK293 cells assessed as decrease in [3H]GABA uptake at 100 uM preincubated for 25 mins followed by [3H]GABA addition measured after 4 mins by liquid scintillation counter method
T1 sequence (whole entry): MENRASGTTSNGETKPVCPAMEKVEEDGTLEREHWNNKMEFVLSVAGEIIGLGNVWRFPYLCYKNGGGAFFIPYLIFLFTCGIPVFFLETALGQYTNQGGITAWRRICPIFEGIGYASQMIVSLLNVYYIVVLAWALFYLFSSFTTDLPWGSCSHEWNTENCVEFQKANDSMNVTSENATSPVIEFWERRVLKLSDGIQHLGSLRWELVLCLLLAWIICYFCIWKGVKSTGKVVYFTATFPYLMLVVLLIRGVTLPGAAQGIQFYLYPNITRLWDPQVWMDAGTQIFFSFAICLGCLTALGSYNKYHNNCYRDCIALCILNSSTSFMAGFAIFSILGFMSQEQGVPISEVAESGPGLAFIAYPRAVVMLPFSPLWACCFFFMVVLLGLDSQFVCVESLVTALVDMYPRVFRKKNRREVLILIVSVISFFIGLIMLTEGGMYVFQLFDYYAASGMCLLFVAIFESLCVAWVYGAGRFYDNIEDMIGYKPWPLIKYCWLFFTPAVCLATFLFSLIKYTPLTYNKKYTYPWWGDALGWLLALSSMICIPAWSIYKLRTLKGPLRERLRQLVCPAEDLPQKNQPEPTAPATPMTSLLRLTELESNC

[2] = biological target: Sodium- and chloride-dependent GABA transporter 1 (Mus musculus) (UniProt P31648); test: Inhibition of mouse GAT1 expressed in HEK293 cells assessed as decrease in [3H]GABA uptake at 100 uM preincubated for 25 mins followed by [3H]GABA addition measured after 4 mins by liquid scintillation counter method
[3] = biological target: T2, GABA transporter 2 (Mus musculus) (UniProt P31651); test: Inhibition of mouse GAT2 expressed in HEK293 cells assessed as decrease in [3H]GABA uptake at 100 uM preincubated for 25 mins followed by [3H]GABA addition measured after 10 mins by liquid scintillation counter method
T2 sequence (whole entry): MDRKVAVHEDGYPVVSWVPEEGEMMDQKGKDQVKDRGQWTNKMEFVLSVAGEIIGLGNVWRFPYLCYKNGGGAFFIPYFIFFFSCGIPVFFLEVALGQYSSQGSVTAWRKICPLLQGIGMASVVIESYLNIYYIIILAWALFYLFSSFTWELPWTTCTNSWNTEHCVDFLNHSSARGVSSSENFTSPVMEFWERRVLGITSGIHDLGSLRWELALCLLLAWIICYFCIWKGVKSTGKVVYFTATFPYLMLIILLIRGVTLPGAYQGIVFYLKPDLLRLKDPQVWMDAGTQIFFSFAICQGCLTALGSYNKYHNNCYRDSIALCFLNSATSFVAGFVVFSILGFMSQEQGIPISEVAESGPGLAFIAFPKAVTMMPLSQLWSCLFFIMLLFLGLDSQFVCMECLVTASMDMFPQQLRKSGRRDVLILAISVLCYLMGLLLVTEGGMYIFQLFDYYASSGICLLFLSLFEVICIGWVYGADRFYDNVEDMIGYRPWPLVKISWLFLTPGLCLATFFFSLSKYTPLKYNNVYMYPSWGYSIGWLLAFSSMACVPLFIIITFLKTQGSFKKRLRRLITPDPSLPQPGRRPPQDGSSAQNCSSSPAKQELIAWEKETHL

[4] = biological target: T3, GABA transporter 4 (Mus musculus) (UniProt P31650); test: Inhibition of mouse GAT4 expressed in HEK293 cells assessed as decrease in [3H]GABA uptake at 100 uM preincubated for 25 mins followed by [3H]GABA addition measured after 4 mins by liquid scintillation counter method
T3 sequence (whole entry): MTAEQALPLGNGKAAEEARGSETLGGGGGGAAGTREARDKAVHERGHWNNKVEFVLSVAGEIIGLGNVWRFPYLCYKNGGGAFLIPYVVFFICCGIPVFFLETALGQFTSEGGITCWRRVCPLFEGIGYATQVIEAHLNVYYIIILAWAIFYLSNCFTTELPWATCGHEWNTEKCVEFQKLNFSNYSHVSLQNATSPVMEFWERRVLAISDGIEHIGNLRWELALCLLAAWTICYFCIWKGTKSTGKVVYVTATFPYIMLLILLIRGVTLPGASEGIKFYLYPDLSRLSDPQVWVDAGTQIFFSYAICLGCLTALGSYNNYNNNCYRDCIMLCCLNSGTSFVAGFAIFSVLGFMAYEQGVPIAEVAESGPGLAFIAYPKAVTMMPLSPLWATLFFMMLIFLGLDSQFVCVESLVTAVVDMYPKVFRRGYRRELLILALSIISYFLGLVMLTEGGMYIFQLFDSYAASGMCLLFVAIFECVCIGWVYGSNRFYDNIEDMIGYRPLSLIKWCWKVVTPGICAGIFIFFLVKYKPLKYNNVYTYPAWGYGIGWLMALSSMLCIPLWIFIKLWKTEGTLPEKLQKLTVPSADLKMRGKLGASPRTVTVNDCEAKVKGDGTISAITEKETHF

GABA transporter 3 = biological target: T4, GABA transporter 3 (Mus musculus, UniProt P31649); test: Inhibition of mouse GAT3 expressed in HEK293 cells assessed as decrease in [3H]GABA uptake preincubated for 25 mins followed by [3H]GABA addition measured after 4 mins by liquid scintillation counter method
T4 sequence (P31649 whole entry): T1 sequence (whole entry)

GABA transporter 2 = biological target: T5, GABA transporter 2 (Mus musculus, UniProt P31651); test: Inhibition of mouse GAT2 expressed in HEK293 cells assessed as decrease in [3H]GABA uptake preincubated for 25 mins followed by [3H]GABA addition measured after 10 mins by liquid scintillation counter method
T5 sequence (P31651 whole entry): T2 sequence (whole entry)

GABA transporter 4 = biological target: T6, GABA transporter 4 (Mus musculus, UniProt P31650); test: Inhibition of mouse GAT4 expressed in HEK293 cells assessed as decrease in [3H]GABA uptake preincubated for 25 mins followed by [3H]GABA addition measured after 4 mins by liquid scintillation counter method
T6 sequence (P31650 whole entry): T3 sequence (whole entry)

[5] = biological target: T7, Sodium- and chloride-dependent betaine transporter (Homo sapiens, UniProt P48065); test: Inhibition of human BGT-1 expressed in thymidine kinase deficient mouse LM cells assessed as decrease in [3H]GABA uptake after 10 mins by scintillation counter method
T7 sequence (P48065 whole entry): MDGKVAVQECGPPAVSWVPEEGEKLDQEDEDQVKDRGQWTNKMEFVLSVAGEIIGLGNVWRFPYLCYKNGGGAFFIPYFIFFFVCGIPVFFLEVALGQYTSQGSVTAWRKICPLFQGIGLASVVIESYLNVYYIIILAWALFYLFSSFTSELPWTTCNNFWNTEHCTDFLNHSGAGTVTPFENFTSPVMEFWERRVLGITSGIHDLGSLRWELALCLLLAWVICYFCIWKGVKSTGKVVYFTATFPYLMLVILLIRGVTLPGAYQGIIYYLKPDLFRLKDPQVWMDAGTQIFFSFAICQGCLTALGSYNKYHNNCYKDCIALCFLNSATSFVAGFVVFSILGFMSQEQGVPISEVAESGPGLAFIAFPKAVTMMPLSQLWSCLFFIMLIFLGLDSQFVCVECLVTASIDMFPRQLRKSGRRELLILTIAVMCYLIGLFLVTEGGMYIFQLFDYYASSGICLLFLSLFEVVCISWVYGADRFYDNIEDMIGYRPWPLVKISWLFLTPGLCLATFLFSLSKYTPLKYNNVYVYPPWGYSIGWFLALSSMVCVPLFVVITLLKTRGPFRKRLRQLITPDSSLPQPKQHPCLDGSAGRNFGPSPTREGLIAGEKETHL

[6] = biological target: Sodium- and chloride-dependent GABA transporter 1 (Mus musculus, UniProt P31648); test: Inhibition of mouse GAT1 expressed in HEK293 cells assessed as decrease in [3H]GABA uptake preincubated for 25 mins followed by [3H]GABA addition measured after 4 mins by liquid scintillation counter method

Compound | inhibition [1] [%] | inhibition [2] [%] | inhibition [3] [%] | inhibition [4] [%] | IC50 (GABA transporter 3) [µM] | IC50 (GABA transporter 2) [µM] | IC50 (GABA transporter 4) [µM] | IC50 [5] [µM] | IC50 [6] [µM]
O=C(O)/C=C/c1ncc[nH]1 |  | 73.7 | 77.3 | 47.2 |  |  |  |  | 
O=C(O)CCc1ncc[nH]1 |  | 62.8 |  |  | 28.8 | 525 | 309 |  | 
COc1ccc(C2(OCCN3CCCC(C(=O)O)C3)c3ccccc3-c3ccccc32)cc1 (stereo not drawn) |  | 73.1 | 66.3 |  | 93.3 |  | 30.2 | 27 | 
COc1ccc(C2(OCCCCn3cncc3CC(=O)O)c3ccccc3-c3ccccc32)cc1 | 41.7 | 70.8 |  | 59 |  | 22.9 |  |  | 
COc1ccc(C2(OCCCn3cncc3CC(=O)O)c3ccccc3-c3ccccc32)cc1 |  | 50.1 | 70.1 | 55.6 | 81.3 |  |  |  | 
Cc1ccsc1C(=CCCN1CCC[C@@H](C(=O)O)C1)c1sccc1C | 64 |  | 52 | 73 |  |  |  |  | 
COc1ccc(C2(OCCCCn3cnc(CC(=O)O)c3)c3ccccc3-c3ccccc32)cc1 |  | 64.9 |  |  | 39.8 | 24 | 49 |  | 
COc1ccc(C2(OCCCCCn3cncc3CC(=O)O)c3ccccc3-c3ccccc32)cc1 | 68 |  | 38.5 | 77.4 |  |  |  |  | 79.4
O=C(O)CCc1nccn1CCC=C(c1ccccc1)c1ccccc1 | 48.1 |  |  | 53.7 |  | 58.9 |  |  | 74.1
COc1ccc(C2(OCCCCCn3cnc(CC(=O)O)c3)c3ccccc3-c3ccccc32)cc1 |  | 72.7 |  |  | 97.7 | 61.7 | 105 |  | 

Results, then the molecule that gave them:

inhibition [1] [%] | inhibition [2] [%] | inhibition [3] [%] | inhibition [4] [%] | IC50 (GABA transporter 3) [µM] | IC50 (GABA transporter 2) [µM] | IC50 (GABA transporter 4) [µM] | IC50 [5] [µM] | IC50 [6] [µM] | Compound
43.2 | 64.8 | 53 | 58.3 |  |  |  |  |  | COc1ccc(C2(OCCn3ccnc3CCC(=O)O)c3ccccc3-c3ccccc32)cc1
 | 48.5 |  |  | 35.5 | 25.1 | 43.7 |  |  | COc1ccc(C2(/C=C/Cn3ccnc3CCC(=O)O)c3ccccc3-c3ccccc32)cc1
50.8 | 67.2 | 57.9 | 46 |  |  |  |  |  | COc1ccc(C2(OCCn3cncc3CC(=O)O)c3ccccc3-c3ccccc32)cc1
 |  | 48.3 | 50.7 | 28.2 |  |  |  | 37.2 | COc1ccc(C2(OCCOCCn3ccnc3CCC(=O)O)c3ccccc3-c3ccccc32)cc1
 |  |  |  |  | 28.8 | 10.2 |  | 12.6 | COc1ccc(C2(OCCCCCn3ccnc3/C=C/C(=O)O)c3ccccc3-c3ccccc32)cc1
51.4 | 84.2 |  | 61.4 |  | 97.7 |  |  |  | COc1ccc(C2(OCCCn3cnc(CC(=O)O)c3)c3ccccc3-c3ccccc32)cc1
 |  |  |  | 79.4 | 166 | 110 |  | 126 | COc1ccc(C2(/C=C/Cn3cncc3CC(=O)O)c3ccccc3-c3ccccc32)cc1
46.7 | 56.6 | 44 | 85.4 |  |  |  |  |  | COc1ccc(C2(OCCn3cnc(CC(=O)O)c3)c3ccccc3-c3ccccc32)cc1
 |  |  |  | 24.5 | 30.9 | 21.9 |  | 26.3 | COc1ccc(C2(/C=C/COCCn3ccnc3CCC(=O)O)c3ccccc3-c3ccccc32)cc1
 |  |  |  | 23.4 | 12.6 | 29.5 |  | 11.7 | COc1ccc(C2(OCCCCCn3ccnc3CCC(=O)O)c3ccccc3-c3ccccc32)cc1
48.6 |  | 31.2 | 55.4 |  |  |  |  | 100 | COc1ccc(C2(OCCCn3ccnc3CCC(=O)O)c3ccccc3-c3ccccc32)cc1
 |  |  |  | 15.8 | 37.2 | 13.2 |  | 70.8 | COc1ccc(C2(OC/C=C\Cn3ccnc3CCC(=O)O)c3ccccc3-c3ccccc32)cc1
43.9 | 55.8 |  | 61.4 |  | 32.4 |  |  |  | COc1ccc(C2(OC/C=C/Cn3ccnc3CCC(=O)O)c3ccccc3-c3ccccc32)cc1
 | 62.4 | 24.2 |  | 47.9 |  | 39.8 |  |  | COc1ccc(C2(/C=C/Cn3cnc(CC(=O)O)c3)c3ccccc3-c3ccccc32)cc1
 |  |  |  | 87.1 | 25.1 | 174 |  | 141 | COc1ccc(C2(OCCCCn3ccnc3CCC(=O)O)c3ccccc3-c3ccccc32)cc1
